According to the supplement of paper PMC10307832:

Legend:
Assay in all cases: relative viability (nuclei count vs DMSO), 5 days (fraction); higher = more cells survive
[1] = compound: CC(C)N(CCCNC(=O)Nc1ccc(C(C)(C)C)cc1)C[C@H]1O[C@@H](n2ccc3c(N)ncnc32)[C@H](O)[C@@H]1O
Method in brief: (§1)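 Five library-drug doses, separated by factors of √10, were pinned into 1536-well plates holding lung cancer cell lines after an overnight stay at 37 °C. Cells were fixed, permeabilised and Hoechst-stained in one step after 5 days without medium change, then imaged at 4×. Viability compares treated-well with vehicle-well nuclei, counted in MetaXpress, as a median across plates. Passing plates had control CV below 25% and at least one doubling.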

Shikonin = compound: CC(C)=CC[C@@H](O)C1=CC(=O)c2c(O)ccc(O)c2C1=O [Shikonin]
Method in brief: as §1

[2] = compound: CC(C)N(CCCNC(=O)Nc1ccc(C(C)(C)C)cc1)C[C@H]1O[C@@H](n2ccc3c(N)ncnc32)[C@H](O)[C@@H]1O + Nc1nc2[nH]cc(CCc3ccc(C(=O)N[C@@H](CCC(=O)O)C(=O)O)cc3)c2c(=O)[nH]1 [Pemetrexed] (partner 0.2 µM)
Method in brief: (§2)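 Lung cancer cell lines in 1536-well plates were dosed by pin tool the day after seeding, either with one drug alone or with a fixed anchor-drug dose plus five library-drug doses (not always all listed) in √10 steps. After 5 days, cells were fixed and their nuclei stained in one step (final 0.05% Triton X-100, 1% formaldehyde, 1 ug/ml Hoechst), then counted on 4× images. Relative viability is the nuclei count in treated wells divided by that in vehicle wells. Values are medians of duplicate plates.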

Shikonin + OSI-027 = compound: CC(C)=CC[C@@H](O)C1=CC(=O)c2c(O)ccc(O)c2C1=O [Shikonin] + COc1cccc2cc(-c3nc([C@H]4CC[C@H](C(=O)O)CC4)n4ncnc(N)c34)[nH]c12 [OSI-027] (partner 0.5 µM)
Method in brief: as §2

| Cell Line | relative viability ([1]; 0.08 µM) | relative viability ([1]; 0.253 µM) | relative viability ([1]; 0.8 µM) | relative viability ([1]; 2.53 µM) | relative viability ([1]; 8 µM) | relative viability (Shikonin; 0.01 µM) | relative viability (Shikonin; 0.1 µM) | relative viability (Shikonin; 0.3162 µM) | relative viability (Shikonin; 1 µM) | relative viability ([2]; first compound 0.08 µM) | relative viability ([2]; first compound 0.253 µM) | relative viability ([2]; first compound 2.53 µM) | relative viability ([2]; first compound 8 µM) | relative viability (Shikonin + OSI-027; first compound 0.01 µM) | relative viability (Shikonin + OSI-027; first compound 0.1 µM) | relative viability (Shikonin + OSI-027; first compound 0.3162 µM) | relative viability (Shikonin + OSI-027; first compound 1 µM) | relative viability ([2]; first compound 0.8 µM) |
| --- | --- | --- | --- | --- | --- | --- | --- | --- | --- | --- | --- | --- | --- | --- | --- | --- | --- | --- |
| 201T | 1 | 1.02 | 0.746 | 0.981 | 1.02 | 1 | 1.06 | 1.02 | 1.09 | 0.334 | 0.368 | 0.304 | 0.351 | 0.795 | 0.994 | 0.715 | 0.976 | – |
| A549 | 0.93 | 0.877 | 1.02 | 0.94 | 0.933 | 1.02 | 0.956 | 1.07 | 0.997 | – | – | – | – | – | – | – | – | – |
| A-427 | 0.962 | 0.93 | 1.03 | 0.958 | 0.984 | 1.03 | 1.17 | 1.02 | 1.16 | 1.05 | 0.998 | 0.929 | 0.99 | 0.503 | 0.594 | 0.514 | 0.509 | 0.937 |
| ABC-1 | 0.859 | 0.797 | – | 1.05 | 1.01 | 0.921 | 1.13 | 0.91 | 0.764 | – | – | – | – | 0.61 | 0.533 | 0.391 | 0.265 | – |
| BEN | 0.954 | 1.02 | 0.948 | 0.863 | 1.03 | 0.926 | 1 | 1.03 | 1.18 | 0.705 | 0.646 | 0.694 | 0.72 | 0.281 | 0.311 | 0.298 | 0.324 | 0.762 |
| CAL-12T | 0.937 | 0.906 | 0.992 | 0.969 | 0.938 | 1.03 | 1.07 | 0.981 | 0.991 | 1.21 | 1.16 | 0.983 | 1.05 | 0.658 | 0.936 | 0.546 | 0.488 | 1.1 |
| COR-L23 | 1.04 | 1.03 | 1.08 | 1.01 | 1.02 | 1.18 | 1.02 | 1.12 | 0.995 | 0.188 | 0.203 | 0.2 | 0.21 | 0.854 | 0.778 | 0.732 | 0.729 | 0.202 |
| COR-L 105 | 0.887 | 0.943 | 0.921 | 0.943 | 0.923 | 0.979 | 0.973 | 0.911 | 0.855 | 1.09 | 1.01 | 1.11 | 0.956 | 0.685 | 0.723 | 0.613 | 0.611 | 1.18 |
| Calu-6 | 1 | 1.03 | 0.996 | 1.04 | 0.966 | 1.05 | 1.11 | 1.04 | 0.93 | – | – | – | – | – | – | – | – | – |
| ChaGo-K-1 | 0.97 | 0.889 | 0.918 | 0.96 | 1.06 | 1.02 | 0.971 | 1.05 | 1.02 | 0.261 | 0.256 | 0.258 | 0.268 | 0.598 | 0.654 | 0.665 | 0.662 | 0.259 |
| EBC-1 | 0.926 | 0.96 | 0.874 | 0.941 | 0.808 | 1.06 | 0.997 | 1.05 | 0.962 | – | – | – | – | – | – | – | – | – |
| EKVX | 1 | 0.934 | 0.932 | 1 | 0.862 | 1 | 0.963 | 1.08 | 0.964 | 0.44 | 0.325 | 0.464 | 0.404 | 0.617 | 0.668 | 0.917 | 0.734 | 0.413 |
| EMC-BAC-2 | 0.943 | 0.928 | 1.03 | 0.905 | 0.889 | 0.97 | 0.997 | 1.11 | 1.13 | 0.439 | 0.465 | 0.431 | 0.488 | 0.38 | 0.399 | 0.39 | 0.386 | 0.432 |
| EPLC-272H | 0.907 | 0.883 | 0.968 | 0.936 | 0.859 | 0.906 | 0.974 | 1.06 | 1.09 | 0.404 | 0.303 | 0.341 | 0.396 | 0.271 | 0.274 | 0.279 | 0.259 | 0.298 |
| H3255 | 0.876 | 0.929 | 0.919 | 0.933 | 0.893 | 0.978 | 1.06 | 1.05 | 1.02 | 0.569 | 0.538 | 0.562 | 0.548 | 0.591 | 0.596 | 0.622 | 0.475 | 0.61 |
| HARA | 0.882 | 0.954 | 0.62 | 0.774 | 0.784 | 0.931 | 1.21 | 1.07 | 1.22 | 0.229 | 0.293 | 0.233 | 0.231 | 0.431 | 0.667 | 0.521 | 0.521 | 0.236 |
| HCC-15 | 0.938 | 0.986 | 0.786 | 0.979 | 0.914 | 1.06 | 1.04 | 1.12 | 1.09 | 0.221 | 0.225 | 0.213 | 0.219 | 0.719 | 0.705 | 0.692 | 0.744 | 0.229 |
| HCC-44 | 0.989 | 1.04 | 0.789 | 0.976 | 0.93 | 1 | 1.05 | 1.03 | 1.09 | 0.662 | 0.654 | 0.688 | 0.586 | 0.512 | 0.513 | 0.466 | 0.747 | 0.539 |
| HCC-78 | 1.05 | 0.787 | 0.942 | 0.875 | 1 | 0.942 | 1.14 | 1.04 | 1.15 | 0.869 | 0.848 | 0.844 | 0.846 | 0.338 | 0.377 | 0.353 | 0.401 | 0.928 |
